Structures are written as SMILES.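 Five compound concentrations were applied to cells in 96-well plates for 48 hours; endpoints were derived by simple linear interpolation of the resulting dose-response curve. Here, GI50 denotes the concentration required for 50% inhibition of growth.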 Active and inactive are the calls of the source. No stated cut-off is given here; in the data, active = GI50 up to about 1.1 µM and inactive = higher. A value given as a limit tells only on which side of the number the result lay.

Some test systems named below: SK-MEL-5; OVCAR-5; RPMI-8226; SF-295; OVCAR-4; HOP-62; SK-MEL-2; OVCAR-3; UACC-62; CCRF-CEM; A498; COLO 205; U-251; HCT-15; SF-268; IGROV-1; MOLT-4; SK-MEL-28; K562; NCI-H460.
Common to all, as to assay: growth of human tumour cells (NCI), 48 h

Turning to `CC(=O)O[C@H]1CC[C@@]2(C)C(=CC[C@@H]3[C@@H]2CC[C@]2(C)C(=O)/C(=C\c4ccccc4)C[C@@H]32)C1`, the GI50 with SK-MEL-5 was 39.4 µM (inactive); with OVCAR-5 it was > 100 µM (inactive); in the assay on RPMI-8226 it was > 100 µM (inactive); with SF-295, > 100 µM (inactive); with OVCAR-4, > 100 µM (inactive); in the assay with HOP-62, 94 µM (inactive). Further, the GI50 in the assay on SK-MEL-2 was > 100 µM (inactive); with OVCAR-3 it was 61.9 µM (inactive); with UACC-62, > 100 µM (inactive); with CCRF-CEM, > 100 µM (inactive); in the assay with A498, > 100 µM (inactive); with COLO 205 it was > 100 µM (inactive). Also, the GI50 with U-251 is > 100 µM (inactive); with HCT-15, above 100 µM; in the assay on SF-268, > 100 µM (inactive); in the assay on IGROV-1, > 100 µM (inactive); in the assay on MOLT-4, 37.8 µM (inactive); with SK-MEL-28, > 100 µM (inactive). The figures for the GI50 with K562 and with NCI-H460 were 54.7 µM (inactive) and > 100 µM (inactive), respectively.

`O=C(NC(Cc1ccc(I)cc1)C(=O)O)c1ccc(Br)cc1` (centres undefined): the GI50 was > 67.1 µM (inactive) in the assay on SK-MEL-5; > 100 µM (inactive) in the assay with OVCAR-5; 46.9 µM (inactive) with RPMI-8226; > 100 µM (inactive) with SF-295; > 85.5 µM (inactive) in the assay with OVCAR-4; > 100 µM (inactive) with HOP-62. The GI50 with SK-MEL-2 was > 100 µM (inactive); in the assay with OVCAR-3, 89.7 µM (inactive); in the assay on UACC-62, > 67.3 µM (inactive); in the assay with CCRF-CEM, > 66.2 µM (inactive); in the assay on A498, > 100 µM (inactive); in the assay on COLO 205, > 100 µM (inactive). In addition, the GI50 was 65.8 µM (inactive) in the assay on U-251; above 100 µM in the assay on HCT-15; > 100 µM (inactive) with SF-268; > 100 µM (inactive) in the assay on IGROV-1; > 72.9 µM (inactive) in the assay with MOLT-4; > 100 µM (inactive) in the assay with SK-MEL-28. In addition, the GI50 with K562 is > 73.1 µM (inactive); with NCI-H460 it was 98.6 µM (inactive).

For `COc1cc(/N=N\c2ccc(OC)c(S(=O)(=O)O)c2)c(C)cc1/N=N\c1ccc(/C=C/c2ccc(/N=[N+](/[O-])c3ccc(/C=C/c4ccc(/N=N/c5cc(C)c(/N=N\c6ccc(OC)c(S(=O)(=O)O)c6)cc5OC)cc4S(=O)(=O)O)c(S(=O)(=O)O)c3)cc2S(=O)(=O)O)c(S(=O)(=O)O)c1`, the GI50 in the assay with SK-MEL-5, with OVCAR-5, in the assay on RPMI-8226, in the assay with SF-295, in the assay with OVCAR-4 and in the assay with HOP-62 was > 100 µM (inactive) throughout. Besides, the GI50 in the assay on SK-MEL-2, in the assay with OVCAR-3, in the assay with UACC-62, in the assay with CCRF-CEM, in the assay on A498 and with COLO 205 was > 100 µM (inactive) each time. Moreover, the GI50 in the assay on U-251 is > 100 µM (inactive); in the assay with HCT-15, above 100 µM; in the assay on SF-268, > 100 µM (inactive); in the assay with IGROV-1 it was > 100 µM (inactive); in the assay on MOLT-4, > 100 µM (inactive); in the assay on SK-MEL-28 it was > 100 µM (inactive). Also, the GI50 in the assay on K562 and in the assay on NCI-H460 was > 100 µM (inactive) in each case.

For `Cc1ccc(NC(=O)S(N)(c2ccc(C)cc2)[N+](=O)[O-])cc1` (centres undefined), the GI50 with SK-MEL-5, in the assay on OVCAR-5, in the assay on RPMI-8226, with SF-295, in the assay with OVCAR-4 and in the assay with HOP-62 was > 100 µM (inactive) in each case. For the same compound, the GI50 in the assay with SK-MEL-2, in the assay with OVCAR-3, in the assay on UACC-62, in the assay on CCRF-CEM, with A498 and in the assay with COLO 205 was > 100 µM (inactive) in each case. Also, the GI50 in the assay on U-251 is > 100 µM (inactive); with HCT-15 it was above 100 µM; with IGROV-1, > 100 µM (inactive); in the assay on MOLT-4, 84.7 µM (inactive); in the assay with SK-MEL-28 it was > 100 µM (inactive); in the assay on K562 it was 8.87 µM (inactive). For the same compound, the GI50 in the assay with NCI-H460 is > 100 µM (inactive).

Source of the values: ChEMBL document CHEMBL1201862, “PubChem BioAssay data set” (2004).
